# Experiments:
# [1] = test system: prostaglandin PGF2α levels; assay: PGF2α levels in IL-1β stimulated NHAC cells; type: cell-based; settings: IL-1β 10 ng/ml, 24 hours, fractions 64-32 μg/ml
# Description: (§1) To study the anti-inflammatory activities, assays Fr 1, Fr i, Fr V and Fr Vi were selected and tested at a concentration of ≤64 μg/ml. The assays carried out to measure the 1) Nitric Oxide (NO) levels, 2) prostaglandin PGE2 levels, 3) prostaglandin PGF2α levels. NHAC cells at passage 3, were stimulated first with proinflammatory cytokine IL-1β at a predetermined concentration 10 ng/ml overnight, NHAC Cells were then treated with fractions in the presence of IL-1β 10 ng/ml for 24 hours and cell culture supernatant was collected to measure NO, PGE2 and PGF2α levels. Griess Reagent Kit for Nitrite Determination (Molecular Probes, Invitrogen) was used as per kit instructions. For estimation of PGs, High Sensitivity PGE2 & PGF2α EIA kits (Assay Designs Inc.) were used.
# [2] = test system: prostaglandin PGE2 levels; assay: PGE2 levels in IL-1β stimulated NHAC cells; type: cell-based; settings: IL-1β 10 ng/ml, 24 hours, fractions ≤64 μg/ml
# Description: as §1
compound,measurement,setting,value
COc1ccc2c(c1)c(CC(=O)O)c(C)n2C(=O)c1ccc(Cl)cc1 [Indomethacin],IL-1β induced PGF2α levels,[1],significantly reduced
same,IL-1β induced PGE2 levels,[2],significantly reduced
